Data set [1] relates to IPF-ABC. Put plainly: Human 3D bronchosphere assay, IPF-ABC single culture: bronchosphere formation. The format is cell-based. The note with it: IPF-ABC cultured in 3D, 21 days. On the procedure:
(§1) FIG. 5: SRC-inhibitor saracatinib abrogates bronchosphere formation. (A-E) Bronchosphere assays of human IPF-ABCs were performed w/wo IPF lung fibroblasts for 21 days. Cell cultures (n=12, in triplicates) were treated with either vehicle, saracatinib (600, 210, 75, 25, 8 nM), pirfenidone (1 mM) or nintedanib (1 μM). […] (G, H) In the same model we used GFP^+ fibroblasts to study fibroblast proliferation. […] For statistical comparison repeated measures ANOVA with Tukey correction for multiple testing was used.
(§2) Based on the Connectivity MAP predictions, the inventors tested whether saracatinib, a known SRC inhibitor previously tested in human cancer is able to modulate IPF-ABC phenotype. […] The results were similar in cells obtained from 12 different individuals with IPF (P<0.0001, FIG. 5B). […] Similar data were obtained by testing cell proliferation in the MTT assay (P<0.0001, FIG. 5C).
(§3) ABCs, either derived from IPF patients or HV, were cultured in matrigel (Corning) in a transwell system with or without lung fibroblasts either derived from patients with IPF or normal lung for 21 days (if not otherwise indicated) in the incubator (5% CO2, 37° C.). Medium exchange (BEGM (Lonza, Basel, Switzerland, #CC-3170)/DMEM (Dulbecco's Modified Eagle Medium (Gibco, Swit Fisher Scientific/Germany); ratio 1:1) was done every 7 days. In some experiments lentiviral transduced GFP expressing fibroblasts were used. Conditioned medium of the 3D organoid culture (day 7 and day 14) was used for ELISA and fibroblast stimulation experiments. Sircol assay (Scientific-Biocolor/UK, #S1000) was performed as recommended by the manufacturer on matrigel and conditioned medium harvested after 6 weeks of cell culture. Bronchosphere formation was documented by Axio Vert.A1/Zeiss/Germany and Axio Observer Z1/Zeiss/Germany. For histology, immunohistology and confocal laser microscopy 3D cell cultures were cryopreserved using Tissue-Tek and cryomolds (Hartenstein/Germany; #CMM). Detailed information is given in the supplement.

The test system of data set [2] is IPF-ABC. Put plainly: MTT cell proliferation assay in IPF-ABC 3D culture. In kind it is cell-based, human. The settings on record: IPF-ABCs without fibroblasts, 21 days; saracatinib 600-8 nM, pirfenidone 1 mM, nintedanib 1 μM. Here is the method: as §1, §2, §3
In general terms: Formazan colour is commonly taken as a measure of viable cells.

Data set [3] relates to IPF-ABC with lung fibroblasts. The data set is described as follows: 3D co-culture model of IPF-ABC with lung fibroblasts: bronchosphere formation. In kind it is cell-based, human. Here is the method: as §1, §2, §3
Data set [4] deals with IPF-ABC with IPF lung fibroblasts. The data set is described as follows: MTT cell proliferation assay in IPF-ABC / IPF lung fibroblast co-culture. The format is cell-based, human. The note with it: in the presence of IPF lung fibroblasts, 21 days; saracatinib 600-8 nM, pirfenidone 1 mM, nintedanib 1 μM. On the procedure:
as §1, §3

In a further data set the test system is ABCs. The data set is described as follows: Cellular vitality of ABCs. In kind it is cell-based, human. The settings on record: all used concentrations (600, 210, 75, 25, 8 nM).
Text: as §2

Another data set deals with lung fibroblasts. Put plainly: Fibroblast proliferation (GFP+ fibroblasts) in IPF-ABC co-culture. The format is cell-based, human. The note with it: GFP+ fibroblasts co-cultured with IPF-ABC. On the procedure: as §1, §2
ABCs, either derived from IPF patients or HV, were cultured in matrigel (Corning) in a transwell system with or without lung fibroblasts either derived from patients with IPF or normal lung for 21 days (if not otherwise indicated) in the incubator (5% CO2, 37° C.). […]

In the next data set the test system is NRG mice. The data set is described as follows: Humanized pulmonary fibrosis model: bleomycin plus intratracheal human IPF-ABCs in NRG mice. The format is in vivo. On the procedure:
FIG. 6: SRC-inhibitor saracatinib attenuates fibrosis in the humanized mouse model. NRG mice were intratracheally injected with a low dose of bleomycin and 3 days later with human ABCs derived from IPF patients. Mice (n=11 each group, 4 replicates (all data shown)) were treated oropharyngeally with or without saracatinib in a dose of 10 mg/kg once daily starting at day 4 (A-C) or at day 8 (D-F). […] All P values were determined by a paired comparison (t-test) testing the effect of saracatinib treatment for each human IPF cell line.
To test the effect of saracatinib on IPF-ABC induced fibrosis and remodeling in-vivo, the inventors returned to the minimal injury xenotransplant model in NRG mice. Overall, the inventors used IPF-ABCs from 38 different individuals with IPF in these experiments. Per IPF subject, IPF-ABCs were used in two animals, one treated with saracatinib and one with vehicle control, to account for interindividual variability. To test the effect of saracatinib on engraftment and development of fibrosis we started treatment at day 4 post injury, one day post IPF-ABC installation for a total of 18 days (FIG. 6A). […] To test the effect of saracatinib on established fibrosis the inventors performed another set of experiments in which treatment was delayed to day 8 when cell engraftment and fibrosis were already established.
Different mice strains were used for the experiments as indicated. B6;129Sv-Rag2tm1Fwa/ZTM (75) (Rag2−/−) and NOD.Cg-Rag1tm1Mom Il2rgtm1Wjl/SzJZtm (76) (NRG) were obtained from the central animal facility (Hannover Medical School, Hannover). NOD.Cg-Prkdcscid Il2rgtm1Wjl Tg(CAGGS-VENUS)1/Ztm (Venus-NSG) mice were kindly provided by Dr. Wiebke Garrels (Hannover Medical School). Mice received bleomycin dissolved in sterile saline at the dose of 1.2 mg/kg intratracheally on day 0. IPF-ABCs, HV-ABCs (Rag 2−/−: 0.3×105, NRG and NSG: 0.2×105) were injected intratracheally on day 3. In some experiments human IPF-ABCs transduced with a lentiviral vector encoding for GFP and luciferase were injected. Pairs of mice received the same IPF-ABC line and were later treated either with vehicle or saractinib (kindly provided by Leslie Cousens AstraZeneca) in a dose of 10 mg/kg, i.g. once daily. For histological and immunohistological analysis, the trachea was cannulated and lungs were insufflated with 4% paraformaldehyde in PBS at a pressure of 25 cm H2O, followed by removal of the heart and inflated lungs en bloc and immersion in 4% paraformaldehyde overnight at 4° C., and the tissues were processed to paraffin wax or were cryopreserved using Tissue Tek® O.C.T.™ compound. […] Collagen content was determined by quantifying hydroxyproline levels according to manufacturer's description. […]

The mark [5] stands for this setting: pirfenidone 1 mM, nintedanib 1 μM.
Setting [6] is: 10 mg/kg once daily oropharyngeal, treatment from day 4, read at day 21.
The mark [7] stands for this setting: 10 mg/kg once daily, treatment delayed to day 8 (day 8 to day 21), established fibrosis.

Molecules are shown by their SMILES.

Regarding `COC(=O)c1ccc2c(c1)NC(=O)/C2=C(\Nc1ccc(N(C)C(=O)CN2CCN(C)CC2)cc1)c1ccccc1` [nintedanib], the bronchosphere formation entry is “no visible effect” in the data set on IPF-ABC [1] (setting [5]) and “significantly reduced bronchosphere formation, but not completely” in data set [3] (setting [5]). In the data set on IPF-ABC [2], the “cell proliferation as measured by MTI assay” value is given as “slightly”. Also, the “cell proliferation as measured by the MTT assay” value in data set [4] is recorded as “less reduced”.
Regarding `Cc1ccc(=O)n(-c2ccccc2)c1` [pirfenidone], the bronchosphere formation result in the data set on IPF-ABC [1] (setting [5]) is reported as “no visible effect”; in data set [3] (setting [5]), “significantly reduced bronchosphere formation, but not completely”. Moreover, the “cell proliferation as measured by MTI assay” value with IPF-ABC [2] is “slightly”. In addition, the “cell proliferation as measured by the MTT assay” value in data set [4] is listed as “less reduced”.
For the compound `CN1CCN(CCOc2cc(OC3CCOCC3)c3c(Nc4c(Cl)ccc5c4OCO5)ncnc3c2)CC1` [saracatinib, N-(5-chloro-1,3-benzodioxol-4-yl)-7-[2-(4-methyl-1-piperazinyl)ethoxy]-5-[(tetrahydro-2H-pyran-4-yl]oxy)-4-quinazolinamine], the bronchosphere formation result in the data set with IPF-ABC [1] (saracatinib 600 nM, 210 nM, and 75 nM) is “complete abrogation”; in data set [3] (saracatinib 8 nM), “did not have an effect”; in data set [3] (saracatinib 25 nM) it was “lower effect”; in data set [3] (saracatinib 600 nM, 210 nM and 75 nM), “completely blocked”. Moreover, the “cell proliferation as measured by MTI assay” value in the data set on IPF-ABC [2] is listed as “significantly reduced”. Moreover, the “cellular vitality of ABCs” value with ABCs is “did not affect”. Moreover, the “cell proliferation as measured by the MTT assay” value in data set [4] was “significantly reduced”. The “fibroblast proliferation in the co-culture” value in the data set with lung fibroblasts is given as “substantially lower”. Moreover, the Ashcroft score in the data set on NRG mice (setting [6]) is on record as 1.4±0.7; in the data set with NRG mice (setting [7]), “significant reductions”. The hydroxyproline/total-protein levels in the data set on NRG mice (setting [6]) is on record as 0.7±0.6. For the same compound, in the data set on NRG mice (setting [7]), the hydroxyproline content result is listed as “significant reductions”.

The values are drawn from patent publication US12036218B2, “Modulators of airway basal cells for the treatment or prevention of lung diseases” (Fraunhofer Gesellschaft zur Förderung der angewandten …, priority 2020, dated 2024).
